From ChEMBL document CHEMBL1949644, “Synthesis and SAR optimization of quinazolin-4(3H)-ones as poly(ADP-ribose)polymerase-1 inhibitors” (Eur J Med Chem, 2012)

Legend:
[1] = target: T1, Poly [ADP-ribose] polymerase 1 (Homo sapiens, UniProt P09874); experiment: Inhibition of PARP1 using TACS-Sapphire substrate for 30 mins by colorimetry
[2] = target: T1, Poly [ADP-ribose] polymerase 1; experiment: Ratio of quinazoline-4(3H)-one IC50 to compound IC50 for PARP1
[3] = target: T1, Poly [ADP-ribose] polymerase 1; experiment: Inhibition of PARP1 at 25 uM using TACS-Sapphire substrate for 30 mins by colorimetry
[4] = tested on: MEF; experiment: Antiproliferative activity against wild type MEF cells assessed as cell viability after 72 hrs by MTT assay; assay type: cell-based; settings: Mus musculus
[5] = tested on: MEF; experiment: Antiproliferative activity against MEF cells harboring Brca1 deletion mutant at exon 11 assessed as cell viability after 72 hrs by MTT assay; assay type: functional, cell-based; settings: Mus musculus
[6] = tested on: MEF; experiment: Ratio of IC50 for wild type MEF cells to MEF cells harboring Brca1 deletion mutant at exon 11; assay type: functional, Mus musculus

T1 sequence (P09874 whole entry): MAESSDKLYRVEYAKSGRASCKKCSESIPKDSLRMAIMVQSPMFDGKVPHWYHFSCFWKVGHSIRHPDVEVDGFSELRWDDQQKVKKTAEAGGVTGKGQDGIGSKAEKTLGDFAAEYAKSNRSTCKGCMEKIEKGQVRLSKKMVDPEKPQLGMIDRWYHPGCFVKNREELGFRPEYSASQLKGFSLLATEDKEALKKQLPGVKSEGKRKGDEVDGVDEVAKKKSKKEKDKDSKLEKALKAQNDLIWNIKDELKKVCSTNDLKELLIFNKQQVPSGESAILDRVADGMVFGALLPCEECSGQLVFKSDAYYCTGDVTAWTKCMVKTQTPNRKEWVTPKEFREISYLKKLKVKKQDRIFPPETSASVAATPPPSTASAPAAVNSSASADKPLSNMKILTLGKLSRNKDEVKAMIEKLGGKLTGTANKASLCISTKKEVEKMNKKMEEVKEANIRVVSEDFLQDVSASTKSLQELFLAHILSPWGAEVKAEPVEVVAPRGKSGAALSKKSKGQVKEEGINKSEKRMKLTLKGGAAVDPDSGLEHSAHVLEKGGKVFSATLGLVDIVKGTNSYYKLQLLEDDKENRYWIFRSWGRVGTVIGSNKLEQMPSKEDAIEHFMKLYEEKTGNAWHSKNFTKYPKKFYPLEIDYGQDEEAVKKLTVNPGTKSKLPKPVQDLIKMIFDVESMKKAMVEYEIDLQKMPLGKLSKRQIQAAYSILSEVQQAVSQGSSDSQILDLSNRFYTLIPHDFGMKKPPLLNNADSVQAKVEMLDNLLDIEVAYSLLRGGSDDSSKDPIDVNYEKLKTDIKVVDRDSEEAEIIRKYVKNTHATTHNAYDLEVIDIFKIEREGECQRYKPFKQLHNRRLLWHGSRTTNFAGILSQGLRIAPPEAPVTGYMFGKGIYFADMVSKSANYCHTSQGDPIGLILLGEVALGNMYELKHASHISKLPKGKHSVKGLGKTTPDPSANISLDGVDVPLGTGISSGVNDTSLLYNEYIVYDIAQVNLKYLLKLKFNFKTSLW

IC50 [1] | inhibition [3] | Structure (SMILES) | also measured
1.32 µM |  | Cc1cccc2c(=O)[nH]cnc12 | Ratio IC50 [2]: 4
 | 40% | O=c1[nH]cnc2ccc(I)cc12 | 
0.4 µM |  | Cc1nc2c(N)cccc2c(=O)[nH]1 | IC50 [4]: > 500 µM; IC50 [5]: 49 µM; Ratio IC50 [6]: >10
18.8 µM |  | O=c1[nH]cnc2c(F)cccc12 | 
1.18 µM |  | Cc1nc2cccc(Cl)c2c(=O)[nH]1 | 
25 µM |  | O=c1[nH]cnc2ccc([N+](=O)[O-])cc12 | 
5.65 µM |  | O=c1[nH]cnc2c(Cl)cccc12 | 
 | < 40% | O=c1[nH]cnc2cc(F)ccc12 | 
1.97 µM |  | Cc1nc2cccc(F)c2c(=O)[nH]1 | 
25 µM | 40% | Cc1ccc2nc[nH]c(=O)c2c1 | 
0.49 µM |  | Cc1nc(O)c2cccc(C)c2n1 | IC50 [4]: 177 µM; IC50 [5]: 15.1 µM; Ratio IC50 [6]: 12
 | < 40% | O=c1[nH]cnc2cc([N+](=O)[O-])ccc12 | 
 | < 40% | Oc1ncnc2cc(Cl)ccc12 | 
5.31 µM |  | Cc1nc2cccc(C)c2c(=O)[nH]1 | 
1.39 µM |  | Cc1cc(C)c2nc[nH]c(=O)c2c1 | Ratio IC50 [2]: 4
 | 40% | Cc1cccc2nc[nH]c(=O)c12 | 
7.5 µM |  | O=c1[nH]cnc2cc(C(F)(F)F)ccc12 | 

IC50 [1] | inhibition [3] | Structure (SMILES) | also measured
 | < 40% | O=c1[nH]cnc2cc(F)c(F)cc12 | 
9.01 µM |  | O=c1[nH]cnc2ccc(F)cc12 | 
2.65 µM |  | Cc1nc2c(Cl)cccc2c(=O)[nH]1 | 
 | < 40% | O=[N+]([O-])c1cccc2c(O)ncnc12 | 
 | < 40% | COc1cc2nc[nH]c(=O)c2cc1OC | 
 | 40% | O=c1[nH]cnc2c(C(F)(F)F)cccc12 | 
 | < 40% | Nc1ccc2c(=O)[nH]cnc2c1 | 
13.2 µM |  | Cc1cc(C)c2nc(C)[nH]c(=O)c2c1 | 
 | 40% | O=[N+]([O-])c1ccc2ncnc(O)c2c1 | 
 | 40% | Nc1ccc2nc[nH]c(=O)c2c1 | 
7.04 µM |  | O=c1[nH]cnc2cccc(F)c12 | 
11 µM |  | O=c1[nH]cnc2ccc(Cl)cc12 | 
 |  | CN(C)CC(=O)Nc1ccc2[nH]c(=O)c3ccccc3c2c1 [PJ34] | IC50 [4]: 19.8 µM; IC50 [5]: 13.2 µM
 | 40% | O=c1[nH]cnc2ccc(O)cc12 | 
 | 40% | Cc1ccc2c(=O)[nH]cnc2c1 | 
3.19 µM |  | O=c1[nH]cnc2cccc(Cl)c12 | 
0.76 µM |  | Nc1cccc2c(=O)[nH]cnc12 | IC50 [4]: > 600 µM; IC50 [5]: > 600 µM
